Laboratory results from patent publication US10603265B2, “Skin whitening peptide agents” (INSTITUT CURIE, priority 2014, dated 2020).
Several values for one entry are separate records, joined by “and”; a condition that tells them apart may be missing. Equal values may be shown once. Entries after “also recorded” stand apart in the source; their conditions may differ.

How the values were obtained:
MNT-1 cells [1] = test: Electron microscopy, grading of melanosome stages in MNT-1 cells; assay type: cell-based, human; settings: MNT1 melanocytes, 3 days, 10 μM peptide, vs H2O control
Experimental: FIG. 6: MNT1 melanocytes were seeded on glass coverslips and cultured 3 days with 10 μM of QK-5 peptide (SEQ ID NO: 16; bottom panel) or H2O (top panel) as a control. Then cells were rapidly washed in DMEM at room temperature and fixed for 90 min with a mixture of 2.5% glutaraldehyde in 0.1 M cacodylate buffer for 90 min at 4° C., post-fixed with 1% OsO4/1.5% potassium ferrocyanide 45 min at 4° C., dehydrated in ethanol and embedded in Epon resin. Ultrathin (60-70 nm) sections were observed under a CM120 electron microscope (FEI company, Eindoven), equipped with a KeenView camera (Soft Imaging System; SIS, Germany). […] Scale bar: 2 μm.
FIG. 7: Melanosome stages were quantified based on their morphologies on MNT1 melanocytes treated as in FIG. 6. Stages I and II correspond to early non-pigmented melanosomes, melanin pigmentation is initiated in stage III, whereas stage IV is a fully mature and pigmented melanosome. Stages were counted and plotted as percentage of their total number.
Control and peptide-treated MNT-1 cells grown on coverslips for 3 days were fixed with 2.5% glutaraldehyde in 0.1M cacodylate buffer, pH 7.2 post-fixed with 1% OsO4 supplemented with 1.5% Potassium ferrocyanure, dehydrated in ethanol, and embedded in epon. Ultrathin sections were prepared with an Ulltracut UCT ultramicrotome (Leica) and observed under a CM120 electron microscope (FEI company, Eindoven) after counter-staining with uranyl acetate and lead citrate.
Grading of melanosomes stages from I to IV, based on morphology and melanin content, were done independently by two authors. The table below presents the criteria of analyses.

[2] = target: T1, co-localization of KIF13A with AP-1 (Homo sapiens, UniProt Q9H1H9); test: Immunofluorescence colocalization of AP-1 with KIF13A in MNT-1 melanocytes; assay type: cell-based; settings: MNT1 melanocytes, 3 days, 10 μM peptide, vs H2O control
T1 construct: endogenous in cells; host or cells: MNT-1 (MNT1) human melanocytic cells
Experimental: FIG. 5: MNT1 melanocytes were seeded on glass coverslips and cultured 3 days with 10 μM of QK-5 peptide (SEQ ID NO: 16) or H2O as a control. Cells were fixed in cold methanol and co-stained using a rabbit anti-human KIF13A and a mouse anti-human γ-adaptin as primary antibodies and goat anti-rabbit or mouse coupled to Alexa-488 or 546 (Molecular Probes). Coverslips were mounted in Dabco (Invitrogen) medium and images were acquired on an Eclipse 80i Upright Microscope (Nikon) and deconvoluted. Images are maximum-intensity z projections of up to 15 3D image stacks acquired using ImageJ software. Analysis was performed by quantifying the intensity of overlapping KIF13A and AP-1 pixels and by normalizing them to the control. QK-5 peptide incubation on melanocytes decreased about 84±7% the co-localization of KIF13A with AP-1. Data are presented as mean±standard deviation. ***; p value (two tailed)<0.001.
MNT-1 cells grown on coverslips were incubated for three days in medium containing 10 μg of peptides. Coverslips were rinsed in PBS, fixed in 100% cold methanol for 30 sec, followed by incubation in PBS and 1 mg/ml BSA. […]
Colocalization analysis was performed using ImageJ software. […] Then identical area inside cells were defined and analyzed for quantification.

AP-1/KIF13A interaction = target: T2, AP-1/KIF13A interaction (Homo sapiens, UniProt Q9H1H9); test: AP-1 immunoprecipitation / KIF13A western blot, MNT-1 melanocyte lysates incubated with peptides; assay type: biochemical; settings: MNT-1 melanocytic cell lysates, 1 μg peptide, KIF13A/AP-1 band intensity normalized to control
T2 construct: endogenous in cells; host or cells: MNT-1 (MNT1) human melanocytic cells
Experimental: FIG. 2: γ-adaptin subunit of the human AP-1 complex was immunoprecipitated from melanocytes (MNT1) cell lysates in presence or not of 1 μg of the indicated peptides (peptides SS-5, EK-11 and QK-5: SEQ ID NO: 28, 1 and 16, respectively) for 2 h at 4° C. under rotation. […] EK-11 and SS-5 peptides were used as a positive and negative controls, respectively. Molecular weight in kDa.
FIG. 3: Intensity of the immunoprecipitated KIF13A and AP-1 bands shown in FIG. 2 were quantified using ImageJ. KIF13A intensity were divided by its corresponding AP-1 intensity and normalized to the control (lysates incubated without peptides, first lane).
Cells at 80% of confluency were washed in cold PBS and lysed on ice in lysis buffer (50 mM Tris, 150 mM NaCl, 0.1% Triton X-100, 10 mM EDTA, pH 7.2, and protease inhibitor cocktail, Roche). Lysates were incubated overnight with 1 μg of peptides. Lysates were first precleared using protein G agarose beads for 1 h at 4° C. under rotation. Supernatants were collected and incubated with protein G agarose beads with 1 μg mouse monoclonal IgG2b anti-CD9 for 1 h at 4° C. under rotation. Precleared supernatants were incubated with beads coated earlier with 1 μg mouse monoclonal IgG2b anti-γ-adaptin for 2 h at 4° C. under rotation. As negative control, 1 μg mouse monoclonal IgG2b anti-CD9 was used to immunoprecipitate the lysate. […]

[3] = target: T3, interaction of human AP-1 with human KIF13A (Homo sapiens, UniProt Q9H1H9); test: AP-1 immunoprecipitation / KIF13A western blot, HeLa cell lysates incubated with peptides; assay type: biochemical; settings: 1 μg peptide, vs control without peptide
T3 construct: incubating independently g of each 12 peptides with HeLa cell lysates (non pigmented cells); endogenous in cells; host or cells: HeLa cell lysate
Experimental: FIG. 1: γ-adaptin subunit of the human AP-1 complex was immunoprecipitated from HeLa cell lysates in presence or not of 1 μg of the indicated 11 amino acids peptides (peptides AI, QT, GN, EK, EL, WQ; NY, QF, LM, FF, LK and RI: SEQ ID NO: 17, 28, 20, 1, 25, 27, 22, 21, 24, 23, 19 and 26, respectively) for 2 h at 4° C. under rotation. […] Molecular weight in kDa.
Cells at 80% of confluency were washed in cold PBS and lysed on ice in lysis buffer (50 mM Tris, 150 mM NaCl, 0.1% Triton X-100, 10 mM EDTA, pH 7.2, and protease inhibitor cocktail, Roche). Lysates were incubated overnight with 1 μg of peptides. Lysates were first precleared using protein G agarose beads for 1 h at 4° C. under rotation. Supernatants were collected and incubated with protein G agarose beads with 1 μg mouse monoclonal IgG2b anti-CD9 for 1 h at 4° C. under rotation. Precleared supernatants were incubated with beads coated earlier with 1 μg mouse monoclonal IgG2b anti-γ-adaptin for 2 h at 4° C. under rotation. As negative control, 1 μg mouse monoclonal IgG2b anti-CD9 was used to immunoprecipitate the lysate.
After five washes in cold lysis buffer and three washes in PBS, immunoprecipitated proteins bound to the beads were incubated in sample buffer with reducing agent, boiled for 10 min at 95° C., and fractionated by SDS-PAGE using Nupage (3-8%) Tris-acetate gels (Invitrogen). […]

[4] = system: 3D human reconstructed pigmented epidermis; test: Melanin assay on reconstructed human pigmented epidermis; assay type: cell-based; settings: 10 days, 30 μM peptide, OD 492 nm, normalized to control
Experimental: FIG. 10: Melanin quantitation on 3D human reconstructed pigmented epidermis incubated 10 days with 30 μM of QA-3 peptides or AK-3 peptides. Synthetic epidermis were removed from their insert and dissolved in 400 μl of Solvable (Perkin Elmer) for 1 h at 100° C. Melanin quantification was performed on 200 μl by measuring the optical density at 492 nm. Melanin quantifications were normalized to the control. Both QA-3 and AK-3 peptides decreased about 22.5±13% or 21±10% the melanin production by synthetic skin epidermis. Data are presented as mean±standard deviation. *; p value (two tailed)<0.1.
Reconstructed human epidermal of phototype VI (Sterlab) were received at day 10 and incubated with the manufacturer's growth medium supplemented from day 11 to day 21 with 30 μg of peptides. As recommended, medium was changed every day. At day 21, the epidermis was separated from the insert, digested by incubation in 400 μl of Solvable (PerkinElmer) at 98° C. for 1 h. Melanin content was measured as optical density at 492 nm.

MNT-1 cells [5] = test: Melanin assay on MNT-1 cells; assay type: cell-based, human; settings: MNT1 melanocytes, 3 days, 10 μM peptide, OD 492 nm, normalized to H2O control
Experimental: FIG. 4: MNT1 melanocytes were cultured 3 days with 10 μM of QK-5 peptide (SEQ ID NO: 16) or H2O as a control. Melanin estimation was performed as previously described (Delevoye et al., J Cell Biol. 2009 Oct. 19; 187(2):247-64), and normalized to the control. QK-5 peptide incubation decreased the intracellular melanin content about 40±0.02%. Data are presented as mean±standard deviation. *; p value (two tailed)<0.05.
The skin whitening activity of the peptide may further be determined by measuring the melanin content of melanocytic cells such as MNT-1 cells, incubated with the peptide. For example, the assay may be carried out as follow: at day 1, 10^5 MNT-1 cells are seeded in 6-well plates; From day 2 to day 4, cells are grown in medium comprising 10 μM of peptides; at day 5, cells are disrupted by sonication in 50 mM Tris-HCl, pH 7.4, 2 mM EDTA, 150 mM NaCl, 1 mM dithiothreitol, and protease inhibitors. Pigment is pelleted at 20,000 g for 15 min at 4° C., rinsed once in ethanol/ether (1:1), and dissolved in 2 M NaOH/20% dimethylsulfoxide at 60° C.; Melanin content is measured as optical density at 492 nm.
At day 1, 10^5 cells were seeded in 6-well plates. From day 2 to day 4, cells were grown in medium containing 1 or 10 μg of peptides. Medium was changed every day. […] Melanin content was measured as optical density at 492 nm.

T2 sequence (Q9H1H9 whole entry): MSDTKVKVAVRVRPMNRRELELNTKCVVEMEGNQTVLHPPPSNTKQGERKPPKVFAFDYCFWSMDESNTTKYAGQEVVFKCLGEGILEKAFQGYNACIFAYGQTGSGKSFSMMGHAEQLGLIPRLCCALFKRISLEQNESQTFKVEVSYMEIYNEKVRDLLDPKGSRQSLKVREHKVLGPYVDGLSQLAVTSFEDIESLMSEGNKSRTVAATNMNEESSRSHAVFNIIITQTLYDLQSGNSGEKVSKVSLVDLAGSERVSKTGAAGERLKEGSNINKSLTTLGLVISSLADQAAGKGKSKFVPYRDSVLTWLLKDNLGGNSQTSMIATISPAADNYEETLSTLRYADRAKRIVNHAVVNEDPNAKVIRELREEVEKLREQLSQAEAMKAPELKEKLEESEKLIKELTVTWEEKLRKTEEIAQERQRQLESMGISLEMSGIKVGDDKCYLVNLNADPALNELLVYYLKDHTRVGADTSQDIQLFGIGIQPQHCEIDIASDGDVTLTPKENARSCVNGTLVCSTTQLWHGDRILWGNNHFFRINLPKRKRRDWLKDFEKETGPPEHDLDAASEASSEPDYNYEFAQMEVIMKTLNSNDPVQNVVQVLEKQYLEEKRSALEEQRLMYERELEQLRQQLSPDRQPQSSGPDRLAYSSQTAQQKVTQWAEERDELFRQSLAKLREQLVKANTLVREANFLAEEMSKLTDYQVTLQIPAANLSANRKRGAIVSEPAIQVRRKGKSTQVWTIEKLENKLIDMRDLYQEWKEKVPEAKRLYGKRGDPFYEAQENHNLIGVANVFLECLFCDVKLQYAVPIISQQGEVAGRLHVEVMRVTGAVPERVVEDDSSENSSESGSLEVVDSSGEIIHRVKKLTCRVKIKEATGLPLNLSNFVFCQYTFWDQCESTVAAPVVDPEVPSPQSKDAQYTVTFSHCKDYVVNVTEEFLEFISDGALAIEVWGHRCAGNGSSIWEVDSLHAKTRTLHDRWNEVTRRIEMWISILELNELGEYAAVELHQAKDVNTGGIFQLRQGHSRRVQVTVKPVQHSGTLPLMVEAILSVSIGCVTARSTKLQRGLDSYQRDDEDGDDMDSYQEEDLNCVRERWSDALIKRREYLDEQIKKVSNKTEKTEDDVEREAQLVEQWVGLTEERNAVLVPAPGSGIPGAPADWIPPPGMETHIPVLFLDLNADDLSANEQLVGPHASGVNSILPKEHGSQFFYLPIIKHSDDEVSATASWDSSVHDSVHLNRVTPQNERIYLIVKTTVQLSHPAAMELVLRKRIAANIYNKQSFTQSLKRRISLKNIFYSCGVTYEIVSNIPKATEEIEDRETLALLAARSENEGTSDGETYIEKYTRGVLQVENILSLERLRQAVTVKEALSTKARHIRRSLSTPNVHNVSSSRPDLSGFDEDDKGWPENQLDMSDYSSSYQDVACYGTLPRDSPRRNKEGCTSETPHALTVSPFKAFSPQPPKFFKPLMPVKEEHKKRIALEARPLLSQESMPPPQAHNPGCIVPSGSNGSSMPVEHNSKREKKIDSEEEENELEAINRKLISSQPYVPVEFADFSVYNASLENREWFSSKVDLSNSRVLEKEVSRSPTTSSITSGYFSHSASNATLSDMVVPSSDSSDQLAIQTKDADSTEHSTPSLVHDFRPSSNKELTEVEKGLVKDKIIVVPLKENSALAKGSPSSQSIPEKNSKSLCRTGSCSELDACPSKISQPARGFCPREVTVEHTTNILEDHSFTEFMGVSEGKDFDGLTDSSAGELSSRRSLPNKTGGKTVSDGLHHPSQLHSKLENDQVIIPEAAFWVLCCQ
T1 sequence (Q9H1H9 whole entry): as above
T3 sequence (Q9H1H9 whole entry): as above

QVAVK (listed as Homo sapiens) [QK-5]
early melanosome Stages (I and II) (MNT-1 cells [1]): without affecting the early Stages (I and II)
number of Stage III melanosomes (MNT-1 cells [1]): increased their number of Stage III; also recorded: increased the number of less mature and pigmented stages III
number of Stage IV (fully mature pigmented) melanosomes (MNT-1 cells [1]): decreased their number of Stage IV melanosomes; also recorded: fewer dark-pigmented granules; also recorded: decreased the number of stage IV melanosomes
decrease of the colocalization of KIF13A with AP-1 [2]: about 84±7%
decrease of the AP-1/KIF13A interaction (AP-1/KIF13A interaction): 56.1±6%

EPLNNLQVAVK (listed as Homo sapiens) [EK-11]
decrease of the AP-1/KIF13A interaction (AP-1/KIF13A interaction): 57.5±8%
decrease of the interaction of AP-1 with KIF13A [3]: about 52.6±7%

AVK [AK-3]
decrease of melanin production / pigmentation of reconstructed epidermis [4]: 21±10%
decrease of the intracellular melanin content (MNT-1 cells [5]): 22±8% and ~21.3±8%
